Assay results published in PubChem BioAssay (NCI).
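Briefly, cells in 96-well plates were exposed to five compound concentrations for 48 h, and endpoints were estimated by linear interpolation. TGI marks complete inhibition of growth.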

Tests used:
Test in all cases: growth of human tumour cells (NCI), 48 h
MDA-MB-435 = tested on: MDA-MB-435
PC-3 prostate = tested on: PC-3 prostate
HL-60(TB) leukemia = tested on: HL-60(TB) leukemia
A498 renal = tested on: A498 renal
786-0 renal = tested on: 786-0 renal
HCC-2998 colon = tested on: HCC-2998 colon
MOLT-4 leukemia = tested on: MOLT-4 leukemia
RXF 393 renal = tested on: RXF 393 renal
MCF7 breast = tested on: MCF7 breast
SK-OV-3 ovarian = tested on: SK-OV-3 ovarian
KM12 colon = tested on: KM12 colon
OVCAR-3 ovarian = tested on: OVCAR-3 ovarian
SR leukemia = tested on: SR leukemia
SK-MEL-28 melanoma = tested on: SK-MEL-28 melanoma
TK-10 renal = tested on: TK-10 renal
K-562 leukemia = tested on: K-562 leukemia
SN12C renal = tested on: SN12C renal
UO-31 renal = tested on: UO-31 renal
T-47D breast = tested on: T-47D breast
SF-268 CNS = tested on: SF-268 CNS
U251 CNS = tested on: U251 CNS
M14 melanoma = tested on: M14 melanoma
OVCAR-4 ovarian = tested on: OVCAR-4 ovarian
ACHN renal = tested on: ACHN renal
RPMI-8226 leukemia = tested on: RPMI-8226 leukemia
HOP-62 NSCLC = tested on: HOP-62 NSCLC
DU-145 prostate = tested on: DU-145 prostate
HS 578T breast = tested on: HS 578T breast
SK-MEL-5 melanoma = tested on: SK-MEL-5 melanoma
NCI-H460 lung = tested on: NCI-H460 lung
SNB-19 CNS = tested on: SNB-19 CNS
A549 NSCLC = tested on: A549 NSCLC
BT-549 breast = tested on: BT-549 breast
HCT-116 colon = tested on: HCT-116 colon
LOX IMVI melanoma = tested on: LOX IMVI melanoma
HT29 colon = tested on: HT29 colon
SW-620 colon = tested on: SW-620 colon
NCI-H522 lung = tested on: NCI-H522 lung
COLO 205 colon = tested on: COLO 205 colon
HCT-15 colon = tested on: HCT-15 colon
NCI-H23 lung = tested on: NCI-H23 lung
CCRF-CEM leukemia = tested on: CCRF-CEM leukemia
OVCAR-8 ovarian = tested on: OVCAR-8 ovarian
MALME-3M melanoma = tested on: MALME-3M melanoma
MDA-MB-231 breast = tested on: MDA-MB-231 breast
SF-295 CNS = tested on: SF-295 CNS
IGROV1 ovarian = tested on: IGROV1 ovarian
NCI/ADR-RES ovarian = tested on: NCI/ADR-RES ovarian
UACC-62 melanoma = tested on: UACC-62 melanoma
MDA-N = tested on: MDA-N
NCI-H226 lung = tested on: NCI-H226 lung
SNB-75 CNS = tested on: SNB-75 CNS
UACC-257 melanoma = tested on: UACC-257 melanoma
SF-539 CNS = tested on: SF-539 CNS
CAKI-1 renal = tested on: CAKI-1 renal
HOP-92 NSCLC = tested on: HOP-92 NSCLC
EKVX NSCLC = tested on: EKVX NSCLC
OVCAR-5 ovarian = tested on: OVCAR-5 ovarian
SK-MEL-2 melanoma = tested on: SK-MEL-2 melanoma

Measured: TGI

O=C(Nc1noc(-c2ccccc2)n1)c1ccccc1CNc1noc(-c2ccccc2)n1
not listed: SK-MEL-2 melanoma
> 100 µM: all other assays above

CSc1n[nH]c(N)c1C(=O)Nc1ccccc1
not listed: ACHN renal | HOP-62 NSCLC | SF-295 CNS | HOP-92 NSCLC
> 100 µM: all other assays above
